We go through 11 compounds from patent US10065990B2, “Cyclic peptide compound, and preparation method, pharmaceutical composition and use thereof” (HANGZHOU GUANYU BIO-MEDICAL CO., LTD, priority 2013, dated 2018).

Common to all, as to experiment: HDAC biochemical activity measurement (fluorescent substrate deacetylation)
One experiment has as its target T1, HDAC8 (Homo sapiens, UniProt Q9BY41).
T1 sequence (Q9BY41 1-377): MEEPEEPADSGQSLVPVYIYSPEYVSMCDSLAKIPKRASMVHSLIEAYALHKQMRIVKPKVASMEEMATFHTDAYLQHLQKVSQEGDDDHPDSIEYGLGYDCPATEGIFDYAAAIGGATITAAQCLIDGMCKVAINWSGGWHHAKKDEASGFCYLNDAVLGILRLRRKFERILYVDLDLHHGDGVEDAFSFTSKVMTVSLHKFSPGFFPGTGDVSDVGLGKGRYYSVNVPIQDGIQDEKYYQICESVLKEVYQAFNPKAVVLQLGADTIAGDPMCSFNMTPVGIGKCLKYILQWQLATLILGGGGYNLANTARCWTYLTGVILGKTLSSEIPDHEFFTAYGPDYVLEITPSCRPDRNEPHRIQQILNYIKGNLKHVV
The note with it: 37° C. 30 minutes.

The target in another experiment is T2, HDAC7 (Homo sapiens, UniProt Q8WUI4).
T2 sequence (Q8WUI4 1-952): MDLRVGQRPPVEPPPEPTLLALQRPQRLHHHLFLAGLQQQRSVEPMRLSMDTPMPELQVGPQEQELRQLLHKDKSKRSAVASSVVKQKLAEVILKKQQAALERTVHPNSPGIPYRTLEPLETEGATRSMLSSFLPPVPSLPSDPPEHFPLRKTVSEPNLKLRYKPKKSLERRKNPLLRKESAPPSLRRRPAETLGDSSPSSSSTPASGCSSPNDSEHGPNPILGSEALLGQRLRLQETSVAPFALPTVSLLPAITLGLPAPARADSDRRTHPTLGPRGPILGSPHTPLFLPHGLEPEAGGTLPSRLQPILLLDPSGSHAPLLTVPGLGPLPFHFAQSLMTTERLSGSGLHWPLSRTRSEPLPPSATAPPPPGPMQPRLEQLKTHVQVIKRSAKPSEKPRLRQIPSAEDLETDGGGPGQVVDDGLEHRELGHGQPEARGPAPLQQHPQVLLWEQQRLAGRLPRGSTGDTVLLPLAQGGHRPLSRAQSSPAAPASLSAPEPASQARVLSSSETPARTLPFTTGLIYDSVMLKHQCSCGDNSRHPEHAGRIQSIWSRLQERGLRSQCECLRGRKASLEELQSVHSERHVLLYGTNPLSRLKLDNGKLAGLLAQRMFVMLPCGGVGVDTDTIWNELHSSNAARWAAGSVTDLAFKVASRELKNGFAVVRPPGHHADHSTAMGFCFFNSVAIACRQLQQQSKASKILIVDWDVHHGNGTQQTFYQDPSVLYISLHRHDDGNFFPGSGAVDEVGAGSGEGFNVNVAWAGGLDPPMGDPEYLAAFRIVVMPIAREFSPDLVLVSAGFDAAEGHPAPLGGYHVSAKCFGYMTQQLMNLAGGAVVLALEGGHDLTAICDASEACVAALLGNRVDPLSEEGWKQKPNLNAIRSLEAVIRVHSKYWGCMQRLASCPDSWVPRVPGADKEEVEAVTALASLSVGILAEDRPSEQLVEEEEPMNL
The settings on record: HDAC7; 37° C. 30 minutes.

A further experiment concerns the target T3, HDAC11 (Homo sapiens, UniProt Q96DB2).
T3 sequence (Q96DB2 1-347): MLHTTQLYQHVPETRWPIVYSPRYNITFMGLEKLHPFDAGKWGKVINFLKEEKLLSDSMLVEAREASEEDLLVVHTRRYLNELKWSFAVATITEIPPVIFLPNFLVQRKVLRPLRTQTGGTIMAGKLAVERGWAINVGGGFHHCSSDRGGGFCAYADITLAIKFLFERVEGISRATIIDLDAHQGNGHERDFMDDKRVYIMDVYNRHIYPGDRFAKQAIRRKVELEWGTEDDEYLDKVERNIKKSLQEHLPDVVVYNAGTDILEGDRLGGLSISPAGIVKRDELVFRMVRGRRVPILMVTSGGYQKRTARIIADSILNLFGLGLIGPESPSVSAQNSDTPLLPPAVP

The target of a further experiment is HDAC1 (Homo sapiens, UniProt Q13547).
Sequence of HDAC1 (Q13547 whole entry, species assumed): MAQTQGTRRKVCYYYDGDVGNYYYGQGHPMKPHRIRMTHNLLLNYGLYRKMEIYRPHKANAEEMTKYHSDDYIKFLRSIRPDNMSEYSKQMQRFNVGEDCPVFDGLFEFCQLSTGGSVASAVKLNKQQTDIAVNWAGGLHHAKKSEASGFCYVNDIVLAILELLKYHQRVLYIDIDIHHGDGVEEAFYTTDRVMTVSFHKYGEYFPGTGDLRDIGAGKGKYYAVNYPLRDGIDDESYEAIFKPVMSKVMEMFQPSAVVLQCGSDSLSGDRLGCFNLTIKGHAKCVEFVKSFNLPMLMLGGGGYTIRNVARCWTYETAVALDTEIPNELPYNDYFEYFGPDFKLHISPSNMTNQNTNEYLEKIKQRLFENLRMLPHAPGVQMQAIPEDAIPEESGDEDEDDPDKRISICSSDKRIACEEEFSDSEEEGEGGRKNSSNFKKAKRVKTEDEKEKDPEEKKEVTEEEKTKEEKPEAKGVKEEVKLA
Where [1] appears, read: HDAC1, 37° C. 30 minutes, read-out: IC50 HDAC1.
The mark [2] stands for this setting: Table 3, read-out: IC50 HDAC1, D (non-substituent).
The mark [3] stands for this setting: Table 3, column C, read-out: IC50 HDAC1, C (six-membered ring with substituents).
The mark [4] stands for this setting: read-out: IC50 HDAC11, HDAC11, 37° C. 30 minutes.

pIC50: −log10 of the molar value. Where two headings read alike, the source gives them in different places.
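For IC50 HDAC1 in this document: fluorogenic acetyl-lysine substrate (20 µM) deacetylated by HDAC1, then developer releases fluorophore read at 360 nm excitation and 460 nm emission, inhibitor incubated 30 min at 37 °C.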
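For IC50 HDAC1, C (six-membered ring with substituents) in this document: fluorogenic acetyl-lysine substrate (20 µM) deacetylated by HDAC1, then developer releases fluorophore read at 360 nm excitation and 460 nm emission, inhibitor incubated 30 min at 37 °C.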
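For IC50 HDAC1, D (non-substituent) in this document: fluorogenic acetyl-lysine substrate (20 µM) deacetylated by HDAC1, then developer releases fluorophore read at 360 nm excitation and 460 nm emission, inhibitor incubated 30 min at 37 °C.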
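For IC50 HDAC7 in this document: fluorogenic deacetylation assay using acetyl-lysine substrate at 20 µM, enzyme and compound incubated 30 min at 37 °C, then developer added, fluorescence read at 360/460 nm.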

In the case of `C/C=C1\NC(=O)c2cc(C)cc(n2)CNC(=O)C[C@@H](/C=C/CCSC(C)=O)OC(=O)[C@H](Cc2ccccc2)NC1=O` [Example 67], the pIC50 (in general, the negative decadic logarithm of the IC50, by convention in mol/L) at HDAC8 was 7.80; against HDAC11, 7.04. Also, at HDAC7, the “IC50 HDAC7” value was “no activity”.

Turning to `C/C=C1\NC(=O)c2cc(F)cc(n2)CNC(=O)C[C@@H](/C=C/CCSC(C)=O)OC(=O)[C@H](Cc2ccc(O)cc2)NC1=O` [Example 82], the pIC50 was 7.47 at HDAC8, 7.03 at HDAC1 (setting [1]) and 7.04 on HDAC11. Moreover, the “IC50 HDAC7” value against HDAC7 was “no activity”.

Regarding `C/C=C1\NC(=O)c2cccc(n2)CNC(=O)C[C@@H](/C=C/CCSC(=O)CCCCC)OC(=O)[C@H](C(C)C)NC1=O` [Compound 3], the pIC50 on HDAC8 is 6.77; at HDAC1 (setting [1]), 6.77; at HDAC1 (setting [2]), 6.77; against HDAC11, 7.00. In addition, the “IC50 HDAC7” value at HDAC7 is “no activity”.

Turning to `C=C1NC(=O)c2nc(ccc2F)CNC(=O)C[C@@H](/C=C/CCSC(C)=O)OC(=O)[C@H](C(C)C)NC1=O` [Compound 84], the pIC50 against HDAC8 is 7.54; on HDAC1 (setting [1]), 7.38; at HDAC1 (setting [3]), 7.38; on HDAC11 (setting [4]), 7.04. For the same compound, at HDAC7, the “IC50 HDAC7” value is reported as “no activity”.

`C/C=C1\NC(=O)c2cccc(n2)CNC(=O)C[C@@H](/C=C/CCSC(=O)CCCCCC)OC(=O)[C@H](C(C)C)NC1=O` [Compound 2]: the pIC50 is 6.60 at HDAC8, 6.72 on HDAC1 (setting [1]), 6.72 on HDAC1 (setting [2]) and 6.99 at HDAC11 (setting [4]). Further, the “IC50 HDAC7” value against HDAC7 is on record as “no activity”.

Consider `CC(=O)SCC/C=C/[C@@H]1CC(=O)NCc2cc(F)cc(n2)C(=O)NC(=C(C)C)C(=O)N[C@@H](C(C)C)C(=O)O1` [Compound 88], for which the pIC50 was 7.37 at HDAC8, 7.51 at HDAC1 (setting [1]), 7.51 at HDAC1 (setting [3]) and 7.03 on HDAC11 (setting [4]). Also, the “IC50 HDAC7” value at HDAC7 is “no activity”.

For the compound `C/C=C1\NC(=O)c2cc(F)cc(n2)CNC(=O)C[C@@H](/C=C/CCSC(C)=O)OC(=O)[C@H](Cc2cccc3ccccc23)NC1=O` [Example 79], the results for the pIC50 against HDAC8, on HDAC1 (setting [1]) and at HDAC11 were 7.38, 7.24 and 7.03, respectively. Moreover, the “IC50 HDAC7” value at HDAC7 was “no activity”.

Consider `C/C=C1\NC(=O)c2nc(ccc2F)CNC(=O)C[C@@H](/C=C/CCSC(C)=O)OC(=O)[C@H](Cc2ccc(O)cc2)NC1=O` [Compound 81], for which the pIC50 was 7.59 at HDAC8, 7.43 on HDAC1 (setting [1]), 7.43 at HDAC1 (setting [3]) and 7.02 on HDAC11 (setting [4]). The “IC50 HDAC7” value at HDAC7 is “no activity”.

Regarding `C/C=C1\NC(=O)c2ccc(SC)c(n2)CNC(=O)C[C@@H](/C=C/CCSC(=O)CCCCCCC)OC(=O)[C@H](CC)NC1=O` [Compound 173], the pIC50 against HDAC8 is 7.41; against HDAC11, 7.01. Besides, the “IC50 HDAC7” value at HDAC7 is listed as “no activity”.

On to `C/C=C1\NC(=O)c2nc(ccc2F)CNC(=O)C[C@@H](/C=C/CCSC(C)=O)OC(=O)[C@H](Cc2cccc3ccccc23)NC1=O` [Compound 78], for which the pIC50 was 7.41 on HDAC8, 7.20 at HDAC1 (setting [1]), 7.20 on HDAC1 (setting [3]) and 7.03 at HDAC11 (setting [4]). Also, at HDAC7, the “IC50 HDAC7” value is “no activity”.

As to `C/C=C1\NC(=O)c2ccc(F)c(n2)CNC(=O)C[C@@H](/C=C/CCSC(C)=O)OC(=O)[C@H](CCCCNC(=O)OCC2c3ccccc3-c3ccccc32)NC1=O` [Example 77], the results for the pIC50 at HDAC8, at HDAC1 (setting [1]) and on HDAC11 were 7.43, 7.03 and 7.06, respectively. Also, the “IC50 HDAC7” value against HDAC7 is “no activity”.
